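Tested at 5 concentrations; 48 h exposure; 96-well plates; endpoints linearly interpolated, else capped at highest concentration. GI50 is the concentration that inhibits growth by half. Definition used: TGI = concentration required for complete inhibition of growth.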
Tests used:
Experiment in all cases: NCI tumour cell line growth inhibition, 48 h
UACC-257 melanoma = system: UACC-257 melanoma
RXF 393 renal = system: RXF 393 renal
A549 NSCLC = system: A549 NSCLC
MOLT-4 leukemia = system: MOLT-4 leukemia
SR leukemia = system: SR leukemia
SF-539 CNS = system: SF-539 CNS
HCT-116 colon = system: HCT-116 colon
OVCAR-5 ovarian = system: OVCAR-5 ovarian
NCI-H23 lung = system: NCI-H23 lung
MDA-MB-435 = system: MDA-MB-435
OVCAR-4 ovarian = system: OVCAR-4 ovarian
SF-295 CNS = system: SF-295 CNS
U251 CNS = system: U251 CNS
EKVX NSCLC = system: EKVX NSCLC
RPMI-8226 leukemia = system: RPMI-8226 leukemia
M14 melanoma = system: M14 melanoma
T-47D breast = system: T-47D breast
IGROV1 ovarian = system: IGROV1 ovarian
NCI/ADR-RES ovarian = system: NCI/ADR-RES ovarian
HOP-92 NSCLC = system: HOP-92 NSCLC
SN12C renal = system: SN12C renal
K-562 leukemia = system: K-562 leukemia
MDA-MB-231 breast = system: MDA-MB-231 breast
SNB-75 CNS = system: SNB-75 CNS
KM12 colon = system: KM12 colon
HL-60(TB) leukemia = system: HL-60(TB) leukemia
MALME-3M melanoma = system: MALME-3M melanoma
HCT-15 colon = system: HCT-15 colon
LOX IMVI melanoma = system: LOX IMVI melanoma
HCC-2998 colon = system: HCC-2998 colon
OVCAR-8 ovarian = system: OVCAR-8 ovarian
MCF7 breast = system: MCF7 breast
SK-MEL-2 melanoma = system: SK-MEL-2 melanoma
786-0 renal = system: 786-0 renal
COLO 205 colon = system: COLO 205 colon
SNB-19 CNS = system: SNB-19 CNS
BT-549 breast = system: BT-549 breast
UO-31 renal = system: UO-31 renal
PC-3 prostate = system: PC-3 prostate
TK-10 renal = system: TK-10 renal
SK-MEL-28 melanoma = system: SK-MEL-28 melanoma
NCI-H226 lung = system: NCI-H226 lung
NCI-H522 lung = system: NCI-H522 lung
ACHN renal = system: ACHN renal
CAKI-1 renal = system: CAKI-1 renal
HT29 colon = system: HT29 colon
DU-145 prostate = system: DU-145 prostate
NCI-H460 lung = system: NCI-H460 lung
HS 578T breast = system: HS 578T breast
SW-620 colon = system: SW-620 colon
CCRF-CEM leukemia = system: CCRF-CEM leukemia
HOP-62 NSCLC = system: HOP-62 NSCLC
OVCAR-3 ovarian = system: OVCAR-3 ovarian
SK-MEL-5 melanoma = system: SK-MEL-5 melanoma
SK-OV-3 ovarian = system: SK-OV-3 ovarian
UACC-62 melanoma = system: UACC-62 melanoma
SF-268 CNS = system: SF-268 CNS
A498 renal = system: A498 renal

**Q.** Which GI50 (UACC-257 melanoma) does the source give for COc1ccc(-c2nc3ccc(-c4nc5ccc(N6CCN(c7ccccc7)CC6)cc5[nH]4)cc3[nH]2)cc1OC here?
**A.** 2050 nM

**Q.** What about the TGI (UACC-257 melanoma) of the same molecule?
**A.** 4400 nM

**Q.** What about the GI50 (RXF 393 renal) of the same molecule?
**A.** 1590 nM

**Q.** What about the TGI (RXF 393 renal) of the same molecule?
**A.** 3410 nM

**Q.** What about the GI50 (A549 NSCLC) of the same molecule?
**A.** 2030 nM

**Q.** What about the TGI (A549 NSCLC) of the same molecule?
**A.** 6730 nM

**Q.** What about the GI50 (MOLT-4 leukemia) of the same molecule?
**A.** 1370 nM

**Q.** What about the TGI (MOLT-4 leukemia) of the same molecule?
**A.** 6470 nM

**Q.** And the GI50 (SR leukemia)?
**A.** 341 nM

**Q.** And the TGI (SR leukemia)?
**A.** 2830 nM

**Q.** And the GI50 (SF-539 CNS)?
**A.** 1370 nM

**Q.** And the TGI (SF-539 CNS)?
**A.** 2810 nM

**Q.** What about the GI50 (HCT-116 colon) of the same molecule?
**A.** 281 nM

**Q.** And the TGI (HCT-116 colon)?
**A.** 1110 nM

**Q.** What about the GI50 (OVCAR-5 ovarian) of the same molecule?
**A.** 2210 nM

**Q.** And the TGI (OVCAR-5 ovarian)?
**A.** 4480 nM

**Q.** What about the GI50 (NCI-H23 lung) of the same molecule?
**A.** 1770 nM

**Q.** And the TGI (NCI-H23 lung)?
**A.** 3660 nM

**Q.** What about the GI50 (MDA-MB-435) of the same molecule?
**A.** 1730 nM

**Q.** And the TGI (MDA-MB-435)?
**A.** 3320 nM

**Q.** And the GI50 (OVCAR-4 ovarian)?
**A.** 1520 nM

**Q.** And the TGI (OVCAR-4 ovarian)?
**A.** 3040 nM

**Q.** What about the GI50 (SF-295 CNS) of the same molecule?
**A.** 1730 nM

**Q.** What about the TGI (SF-295 CNS) of the same molecule?
**A.** 4020 nM

**Q.** What about the GI50 (U251 CNS) of the same molecule?
**A.** 1200 nM

**Q.** And the TGI (U251 CNS)?
**A.** 3020 nM

**Q.** What about the GI50 (EKVX NSCLC) of the same molecule?
**A.** 2290 nM

**Q.** What about the TGI (EKVX NSCLC) of the same molecule?
**A.** 5070 nM

**Q.** And the GI50 (RPMI-8226 leukemia)?
**A.** 190 nM

**Q.** What about the TGI (RPMI-8226 leukemia) of the same molecule?
**A.** 2300 nM

**Q.** What about the GI50 (M14 melanoma) of the same molecule?
**A.** 1690 nM

**Q.** What about the TGI (M14 melanoma) of the same molecule?
**A.** 6320 nM

**Q.** And the GI50 (T-47D breast)?
**A.** 1680 nM

**Q.** And the TGI (T-47D breast)?
**A.** 5190 nM

**Q.** What about the GI50 (IGROV1 ovarian) of the same molecule?
**A.** 1650 nM

**Q.** What about the TGI (IGROV1 ovarian) of the same molecule?
**A.** 3440 nM

**Q.** What about the GI50 (NCI/ADR-RES ovarian) of the same molecule?
**A.** > 100000 nM

**Q.** And the TGI (NCI/ADR-RES ovarian)?
**A.** > 100000 nM

**Q.** And the GI50 (HOP-92 NSCLC)?
**A.** 1280 nM

**Q.** What about the TGI (HOP-92 NSCLC) of the same molecule?
**A.** 4000 nM

**Q.** What about the GI50 (SN12C renal) of the same molecule?
**A.** 5980 nM

**Q.** And the TGI (SN12C renal)?
**A.** 18600 nM

**Q.** What about the GI50 (K-562 leukemia) of the same molecule?
**A.** 366 nM

**Q.** And the TGI (K-562 leukemia)?
**A.** 2920 nM

**Q.** What about the GI50 (MDA-MB-231 breast) of the same molecule?
**A.** 2480 nM

**Q.** What about the TGI (MDA-MB-231 breast) of the same molecule?
**A.** 5050 nM

**Q.** And the GI50 (SNB-75 CNS)?
**A.** 1060 nM

**Q.** And the TGI (SNB-75 CNS)?
**A.** 3800 nM

**Q.** And the GI50 (KM12 colon)?
**A.** 1840 nM

**Q.** What about the TGI (KM12 colon) of the same molecule?
**A.** 4010 nM

**Q.** What about the GI50 (HL-60(TB) leukemia) of the same molecule?
**A.** 1780 nM

**Q.** What about the TGI (HL-60(TB) leukemia) of the same molecule?
**A.** 10200 nM

**Q.** And the GI50 (MALME-3M melanoma)?
**A.** 1050 nM

**Q.** What about the TGI (MALME-3M melanoma) of the same molecule?
**A.** 2520 nM

**Q.** What about the GI50 (HCT-15 colon) of the same molecule?
**A.** 5130 nM

**Q.** And the TGI (HCT-15 colon)?
**A.** > 100000 nM

**Q.** And the GI50 (LOX IMVI melanoma)?
**A.** 357 nM

**Q.** What about the TGI (LOX IMVI melanoma) of the same molecule?
**A.** 1340 nM

**Q.** What about the GI50 (HCC-2998 colon) of the same molecule?
**A.** 1720 nM

**Q.** What about the TGI (HCC-2998 colon) of the same molecule?
**A.** 3340 nM

**Q.** And the GI50 (OVCAR-8 ovarian)?
**A.** 1520 nM

**Q.** What about the TGI (OVCAR-8 ovarian) of the same molecule?
**A.** 4560 nM

**Q.** And the GI50 (MCF7 breast)?
**A.** 138 nM

**Q.** And the TGI (MCF7 breast)?
**A.** 649 nM

**Q.** And the GI50 (SK-MEL-2 melanoma)?
**A.** 2040 nM

**Q.** And the TGI (SK-MEL-2 melanoma)?
**A.** 4070 nM

**Q.** And the GI50 (786-0 renal)?
**A.** 1620 nM

**Q.** And the TGI (786-0 renal)?
**A.** 3120 nM

**Q.** And the GI50 (COLO 205 colon)?
**A.** 770 nM

**Q.** And the TGI (COLO 205 colon)?
**A.** 2810 nM

**Q.** What about the GI50 (SNB-19 CNS) of the same molecule?
**A.** 1930 nM

**Q.** What about the TGI (SNB-19 CNS) of the same molecule?
**A.** 3590 nM

**Q.** And the GI50 (BT-549 breast)?
**A.** 3310 nM

**Q.** And the TGI (BT-549 breast)?
**A.** 10900 nM

**Q.** What about the GI50 (UO-31 renal) of the same molecule?
**A.** 51400 nM

**Q.** And the TGI (UO-31 renal)?
**A.** > 100000 nM

**Q.** What about the GI50 (PC-3 prostate) of the same molecule?
**A.** 1590 nM

**Q.** And the TGI (PC-3 prostate)?
**A.** 3260 nM

**Q.** What about the GI50 (TK-10 renal) of the same molecule?
**A.** 2200 nM

**Q.** What about the TGI (TK-10 renal) of the same molecule?
**A.** 4420 nM

**Q.** What about the GI50 (SK-MEL-28 melanoma) of the same molecule?
**A.** 1660 nM

**Q.** And the TGI (SK-MEL-28 melanoma)?
**A.** 3240 nM

**Q.** What about the GI50 (NCI-H226 lung) of the same molecule?
**A.** 14500 nM

**Q.** And the TGI (NCI-H226 lung)?
**A.** 32600 nM

**Q.** And the GI50 (NCI-H522 lung)?
**A.** 1810 nM

**Q.** What about the TGI (NCI-H522 lung) of the same molecule?
**A.** 4150 nM

**Q.** And the GI50 (ACHN renal)?
**A.** 2280 nM

**Q.** And the TGI (ACHN renal)?
**A.** 10200 nM

**Q.** What about the GI50 (CAKI-1 renal) of the same molecule?
**A.** 2180 nM

**Q.** What about the TGI (CAKI-1 renal) of the same molecule?
**A.** 8020 nM

**Q.** What about the GI50 (HT29 colon) of the same molecule?
**A.** 1200 nM

**Q.** What about the TGI (HT29 colon) of the same molecule?
**A.** 2680 nM

**Q.** What about the GI50 (DU-145 prostate) of the same molecule?
**A.** 1830 nM

**Q.** And the TGI (DU-145 prostate)?
**A.** 3460 nM

**Q.** And the GI50 (NCI-H460 lung)?
**A.** 1730 nM

**Q.** And the TGI (NCI-H460 lung)?
**A.** 3660 nM

**Q.** And the GI50 (HS 578T breast)?
**A.** 2250 nM

**Q.** And the TGI (HS 578T breast)?
**A.** 4930 nM

**Q.** What about the GI50 (SW-620 colon) of the same molecule?
**A.** 1150 nM

**Q.** What about the TGI (SW-620 colon) of the same molecule?
**A.** 2710 nM

**Q.** What about the TGI (CCRF-CEM leukemia) of the same molecule?
**A.** 2540 nM

**Q.** And the GI50 (HOP-62 NSCLC)?
**A.** 2040 nM

**Q.** What about the TGI (HOP-62 NSCLC) of the same molecule?
**A.** 6580 nM

**Q.** And the GI50 (OVCAR-3 ovarian)?
**A.** 2040 nM

**Q.** And the TGI (OVCAR-3 ovarian)?
**A.** 3640 nM

**Q.** And the GI50 (SK-MEL-5 melanoma)?
**A.** 1470 nM

**Q.** What about the TGI (SK-MEL-5 melanoma) of the same molecule?
**A.** 3310 nM

**Q.** What about the GI50 (SK-OV-3 ovarian) of the same molecule?
**A.** 5340 nM

**Q.** What about the TGI (SK-OV-3 ovarian) of the same molecule?
**A.** 18600 nM

**Q.** And the GI50 (UACC-62 melanoma)?
**A.** 1410 nM

**Q.** And the TGI (UACC-62 melanoma)?
**A.** 3630 nM

**Q.** What about the GI50 (SF-268 CNS) of the same molecule?
**A.** 2120 nM

**Q.** What about the TGI (SF-268 CNS) of the same molecule?
**A.** 4680 nM

**Q.** What about the GI50 (A498 renal) of the same molecule?
**A.** 2930 nM

**Q.** What about the TGI (A498 renal) of the same molecule?
**A.** 9630 nM
